Entries after “also recorded” stand apart in the source; their conditions may differ. *1 amine or outer side, *2 acyl side, *3 side chain or, on linkers, in order; H or OH if unused. Where a SMILES comes first, the peptide text is derived from it. Bridges are numbered along the chain shown (N, C = ends). [ ]: non-standard residue; d: D form. The star is where a group is joined. ξ: configuration not given here. X1 = CN(C)c1ccc2c(-c3cc(C(=O)*)ccc3C(=O)[O-])c3ccc(=[N+](C)C)cc-3oc2c1; X2 = CN(C)c1ccc2c(-c3cc(C(=O)*)ccc3C(=O)O)c3ccc(=[N+](C)C)cc-3oc2c1; PEG4 = NCCOCCOCCOCCOCCC(=O)O; d(hCys) = N[C@H](CCS)C(=O)O; hCys = N[C@@H](CCS)C(=O)O; ξF = NC(Cc1ccccc1)C(=O)O; CH2 = C([*:1])[*:2]; ξC = NC(CS)C(=O)O
What was measured:
CMKLR1 [1] = target: T1, CMKLR1 (Homo sapiens, UniProt Q99788); assay: BRET-based arrestin 3 recruitment assay; settings: for arrestin 3 recruitment to the CMKLR1 (in words): BRET, compared with chemerin-9; for Emax: read-out: Emax [%] ± SEM
T1 sequence (Q99788 1-373): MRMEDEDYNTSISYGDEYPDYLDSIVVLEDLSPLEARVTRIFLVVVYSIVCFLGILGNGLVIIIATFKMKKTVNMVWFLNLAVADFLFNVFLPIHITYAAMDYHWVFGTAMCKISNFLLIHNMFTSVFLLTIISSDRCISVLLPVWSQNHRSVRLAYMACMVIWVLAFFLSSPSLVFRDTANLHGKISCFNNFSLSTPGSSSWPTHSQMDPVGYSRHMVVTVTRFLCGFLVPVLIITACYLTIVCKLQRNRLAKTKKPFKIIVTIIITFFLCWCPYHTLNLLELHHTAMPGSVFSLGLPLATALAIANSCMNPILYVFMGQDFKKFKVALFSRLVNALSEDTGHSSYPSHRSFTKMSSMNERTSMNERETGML
Procedure: HEK293 cells were transiently transfected using 75 cm^2 cell culture flasks with cell monolayers (confluency of ˜80%). Plasmid DNA of the C-terminally eYFP tagged human CMKLR1 and the chimeric G protein GαΔ6qi4myr in a pVitro2 vector (7.8 μg) and Renilla-luciferase 8-tagged Arrestin 3 in pcDNA3 (0.2 μg) and 24 μl MetafectenePro were separately added to 900 μl DMEM/Ham's F12 and incubated for 10 min before unification and incubation at RT for 20 min. […] The plasmid solution was added and cells were incubated overnight before seeding. Cell seeding was carried out in white 96-well polystyrene cell culture microplates, coated with poly-D lysine. […] Afterwards, the cells were incubated overnight at 37° C. The assay was performed under unsterile conditions. […] Afterwards, the cells were stimulated with the peptides in different concentrations (10^−5 to 10^−12 M) dissolved in BRET buffer. 50 μl of the peptide dilution were used for cell stimulation. Buffer without peptide was used as a negative control. […] The values of the negative control were subtracted, non-linear regression was calculated using GraphPad Prism. […] All measurements were performed in four technical replicates, all experiments were repeated at least twice.
The bioluminescence resonance energy transfer (BRET) assay was used to determine the potency of cyclic chemerin variants to recruit arrestin 3 to the CMKLR1 receptor after stimulation. HEK293 cells were transiently transfected with CMKLR1 receptor fused with eYFP fluorophore and Arrestin 3 tagged with Rluc8 luciferase. The transfected cells were seeded, incubated with the luciferase substrate coelenterazine-h and stimulated with different peptide concentrations, resulting in measurable BRET signals.

CMKLR1 [2] = target: T1, CMKLR1; assay: Ca2+ mobilization assay (G protein-mediated signaling)
Procedure: COS-7 cells were transfected in 75 cm^2 cell culture flasks with 12 μg of the hCMKLR1_eYFP_GαΔ6qi4myr_pV2 plasmid overnight using Metafectene Pro. Transfected cells were seeded in 96 well plates (100 μL cell suspension in DMEM+10% FBS/well) and incubated overnight. The following day, the Ca^2+-mobilization was performed as described previously. […] All experiments were performed in triplicates, each experiment was repeated at least twice. Nonlinear regression was calculated using GraphPad Prism 5.

[3] = Plasma stability assay of Tam-labeled peptides; settings: for half-life: human; for stability in blood plasma: over a time period of 24 h
Procedure: Investigation of peptide stability in blood plasma was carried out as described previously. […] Samples taken at the respective time points were added to a solution of 0.1% SDS in ACN/EtOH (1:1). After incubation at −20° C. for 20 min, the supernatant was transferred to a new tube and incubated again at −20° C. for at least 3 h. The solution was filtered by centrifugation using Costar Spin-X tubes (0.22 μm) and the filtrate was analyzed by RP-HPLC on a VariTide RPC. […] Peaks were integrated and the peak containing the intact peptide was normalized to the sample taken at t=0 min (100%).

CMKLR1 [4] = target: T1, CMKLR1; assay: Fluorescence microscopy of CMKLR1 internalization and arrestin 3 recruitment; assay type: cell-based; design: expressed in transfected cells; host or cells: HEK293; settings: HEK293 cells, 1 μM peptide
Procedure: Ibidi 15μ-slides were coated with poly D-lysine before cell seeding. Cells were washed with DPBS prior to detachment with 1 ml trypsin/EDTA. […] The cell suspension was diluted to 140,000 cells/200 μl, which were seeded. Incubation was carried out overnight at 37° C. Afterwards, cells were transiently transfected. Plasmid DNA of hCMKLR1_eYFP_GαΔ6qi4myr_pV2 (0.9 μg) and mCherry_Arr3_pcDNA3 (0.1 μg) and 8 μl Lipofectamine were separately added to 100 μl DMEM/Ham's F12 and incubated for 10 min before unification and incubation at RT for 20 min. Incubation was carried out overnight at 37° C. […] The medium was replaced by 200 μl of OptiMEM and the to status was documented. The OptiMEM was then replaced by 200 μl of 1 μM peptide in OptiMEM. Fluorophore excitation was analyzed using different filters, depending on the emission wavelength of the fluorophore and the time of exposure was adjusted to each fluorophore individually. All images were processed identically with the AxioVision software (Carl Zeiss AG, Oberkochen, Germany).
To verify the arrestin-recruitment and analyze the internalization of the CMKLR1 receptor itself, HEK293 cells were used and transiently transfected with fluorescent labeled variants of the two molecules.
FIG. 2: Internalization of CMKLR1 and arrestin 3 recruitment. HEK293 cells expressing the hCMKLR1 (green) and arrestin 3 (Arr3; red) due to transient transfection were used for the internalization studies.

[5] = COS-7 cells transfected with hCMKLR1_eYFP_GαΔ6qi4myr, normalized to chemerin-9
[6] = EC50, HEK293 cells, CMKLR1-eYFP and Rluc8-arrestin 3, 15 min after agonist addition

## C[C@@H]1NC(=O)[C@H](Cc2ccccc2)NC(=O)[C@H](CCC(N)=O)NC(=O)[C@H](NC(=O)[C@@H]2CCCN2C(=O)[C@H](Cc2ccccc2)NC(=O)[C@H](Cc2ccc(O)cc2)NC(=O)CCOCCOCCOCCOCCN)CCSSC[C@@H](C(=O)O)NC(=O)[C@H](Cc2ccccc2)NC1=O [$$ 16, EG4-[x4,C9]-chemerin-9] (H-[PEG4]YFP[d(hCys)]QFAFC-OH; disulfide 5-10)
CMKLR1 [1]
  arrestin 3 recruitment to the CMKLR1 (in words): accepted; also recorded: no impact
  Emax: 102 ± 5%

## C[C@@H]1NC(=O)[C@H](Cc2ccccc2)NC(=O)[C@H](CCC(N)=O)NC(=O)[C@H](NC(=O)[C@@H]2CCCN2C(=O)[C@H](Cc2ccccc2)NC(=O)[C@@H](N)Cc2ccc(O)cc2)CSSC[C@@H](C(=O)O)NC(=O)[C@H](Cc2ccccc2)NC1=O [$$ 4, [c4,C9]-chemerin-9, reference compound] (H-YFP[dC]QFAFC-OH; disulfide 4-9)
CMKLR1 [2]; [5]
  EC50: 64 nM
  pEC50 ± SEM: 7.192 ± 0.147

## C[C@@H]1NC(=O)[C@H](Cc2ccccc2)NC(=O)[C@H](CCC(N)=O)NC(=O)[C@H](NC(=O)[C@@H]2CCCN2C(=O)[C@H](Cc2ccccc2)NC(=O)[C@H](Cc2ccc(O)cc2)NC(=O)c2ccc(C(=O)[O-])c(-c3c4ccc(=[N+](C)C)cc-4oc4cc(N(C)C)ccc34)c2)CSCSC[C@@H](C(=O)O)NC(=O)[C@H](Cc2ccccc2)NC1=O [$$ 8, Tam-[c4,C9-TA]-chemerin-9] (X1-YFP[dC]QFAFC-OH; linker 4-9 via CH2)
[3]; plasma
  half-life: > 24 h
[3]
  stability in blood plasma: completely stable

## C[C@@H]1NC(=O)[C@H](Cc2ccccc2)NC(=O)[C@H](CCC(N)=O)NC(=O)[C@H](NC(=O)[C@@H]2CCCN2C(=O)[C@H](Cc2ccccc2)NC(=O)[C@@H](N)Cc2ccc(O)cc2)CSCSCC[C@@H](C(=O)O)NC(=O)[C@H](Cc2ccccc2)NC1=O [$$ 9, [c4,X9-TA]-chemerin-9] (H-YFP[dC]QFAF[hCys]-OH; linker 4-9 via CH2)
CMKLR1 [2]; [5]
  pEC50 ± SEM: 7.429 ± 0.110
[3]
  stability in blood plasma: completely stable

## C[C@@H]1NC(=O)[C@H](Cc2ccccc2)NC(=O)[C@H](CCC(N)=O)NC(=O)[C@H](NC(=O)[C@@H]2CCCN2C(=O)[C@H](Cc2ccccc2)NC(=O)[C@H](Cc2ccc(O)cc2)NC(=O)CCOCCOCCOCCOCCNC(=O)c2ccc(C(=O)[O-])c(-c3c4ccc(=[N+](C)C)cc-4oc4cc(N(C)C)ccc34)c2)CCSSC[C@@H](C(=O)O)NC(=O)[C@H](Cc2c[nH]c3ccccc23)NC1=O [$$ 19, Tam-EG4-[x4,W8,C9]-chemerin-9] ({X1-PEG4}-YFP[d(hCys)]QFAWC-OH; disulfide 4-9)
[3]; human blood plasma
  half-life: > 48 h

## C[C@@H]1NC(=O)[C@H](Cc2ccccc2)NC(=O)[C@H](CCC(N)=O)NC(=O)[C@H](NC(=O)[C@@H]2CCCN2C(=O)[C@H](Cc2ccccc2)NC(=O)[C@@H](N)Cc2ccc(O)cc2)CCSSC[C@@H](C(=O)O)NC(=O)[C@H](Cc2c[nH]c3ccccc23)NC1=O [$$ 14, [x4,W8,C9]-chemerin-9] (H-YFP[d(hCys)]QFAWC-OH; disulfide 4-9)
CMKLR1 [2]; Ca2+ mobilization assay
  G protein signaling activity (in words): increased the activity even more
CMKLR1 [2]; EC50, COS-7 cells transfected with hCMKLR1_eYFP_GαΔ6qi4myr, normalized to chemerin-9
  EC50: 3 nM
CMKLR1 [2]; pEC50 ± SEM, COS-7 cells transfected with hCMKLR1_eYFP_GαΔ6qi4myr, normalized to chemerin-9
  EC50: 3.17 nM
CMKLR1 [1]
  EC50: 158 nM
  arrestin 3 recruitment to the CMKLR1 (in words): accepted; also recorded: no impact
  Emax: 97 ± 10%

## C[C@@H]1NC(=O)[C@H](Cc2ccccc2)NC(=O)[C@H](CCC(N)=O)NC(=O)[C@H](NC(=O)[C@@H]2CCCN2C(=O)[C@H](Cc2ccccc2)NC(=O)[C@@H](N)Cc2ccc(O)cc2)CCSSC[C@@H](C(=O)O)NC(=O)[C@H](Cc2ccccc2)NC1=O [$$ 13, [x4,C9]-chemerin-9] (H-YFP[d(hCys)]QFAFC-OH; disulfide 4-9)
CMKLR1 [1]
  arrestin 3 recruitment to the CMKLR1 (in words): only slightly shifted EC50 and Emax values; also recorded: slight loss of activity
  Emax: 86.8 ± 4%

## C[C@@H]1NC(=O)[C@H](Cc2ccccc2)NC(=O)[C@H](CCC(N)=O)NC(=O)[C@H](NC(=O)[C@@H]2CCCN2C(=O)[C@H](Cc2ccccc2)NC(=O)[C@H](Cc2ccc(O)cc2)NC(=O)c2ccc(C(=O)O)c(-c3c4ccc(=[N+](C)C)cc-4oc4cc(N(C)C)ccc34)c2)CSSC[C@@H](C(=O)O)NC(=O)[C@H](Cc2ccccc2)NC1=O [$$ 5, Tam-[c4,C9]-chemerin-9] (X2-YFP[dC]QFAFC-OH; disulfide 4-9)
[3]; human blood plasma
  half-life: > 24 h
[3]
  stability in blood plasma: completely stable

## C[C@@H]1NC(=O)[C@H](Cc2ccccc2)NC(=O)[C@H](CCC(N)=O)NC(=O)[C@H](NC(=O)[C@@H]2CCCN2C(=O)[C@H](Cc2ccccc2)NC(=O)[C@H](N)Cc2ccc(O)cc2)CSCSCC[C@@H](C(=O)O)NC(=O)[C@H](Cc2ccccc2)NC1=O [$$ 11, [y1,c4,X9-TA]-chemerin-9] (H-[dY]FP[dC]QFAF[hCys]-OH; linker 4-9 via CH2)
CMKLR1 [2]; [5]
  pEC50 ± SEM: 7.553 ± 0.067

## C[C@@H]1NC(=O)[C@H](Cc2ccccc2)NC(=O)[C@H](CCC(N)=O)NC(=O)[C@H](NC(=O)[C@@H]2CCCN2C(=O)[C@H](Cc2ccccc2)NC(=O)[C@H](Cc2ccc(O)cc2)NC(=O)CCOCCOCCOCCOCCN)CCSSC[C@@H](C(=O)O)NC(=O)[C@H](Cc2c[nH]c3ccccc23)NC1=O [$$ 18, EG4-[x4,W8,C9]-chemerin-9] (H-[PEG4]YFP[d(hCys)]QFAWC-OH; disulfide 5-10)
CMKLR1 [4]
  arrestin 3 recruitment: good arrestin 3 recruitment
CMKLR1 [4]; compared to chemerin-9
  receptor internalization: slightly lower receptor internalization
CMKLR1 [2]
  EC50: 193 nM
CMKLR1 [1]
  arrestin 3 recruitment to the CMKLR1 (in words): accepted
  Emax: 69 ± 8%
CMKLR1 [1]; [6]
  EC50: 418 nM

## CC(=O)NCC(=O)N[C@@H](Cc1ccccc1)C(=O)N[C@@H](CC(C)C)C(=O)NCC(=O)N[C@@H](Cc1ccc(O)cc1)C(=O)N[C@@H](Cc1ccccc1)C(=O)N1CCC[C@H]1C(=O)N[C@@H]1CCSSC[C@@H](C(=O)O)NC(=O)[C@H](Cc2ccccc2)NC(=O)[C@H](C)NC(=O)[C@H](Cc2ccccc2)NC(=O)[C@H](CCC(N)=O)NC1=O [$$ 20, GFLG-[x4,C9]-chemerin-9] (Ac-GFLGYFP[d(hCys)]QFAFC-OH; disulfide 8-13)
CMKLR1 [2]
  EC50: 21.1 nM
CMKLR1 [1]; [6]
  EC50: 100 nM
CMKLR1 [1]
  Emax: 89 ± 5%

## CN(C)c1ccc2c(-c3cc(C(=O)NCCCC[C@H]4NC(=O)C(Cc5ccccc5)NC(=O)[C@@H](CCC(N)=O)NC(=O)[C@H](NC(=O)[C@@H]5CCCN5C(=O)[C@@H](Cc5ccccc5)NC(=O)[C@H](N)Cc5ccc(O)cc5)CSSCC(C(=O)O)NC(=O)[C@@H](Cc5ccccc5)NC4=O)ccc3C(=O)[O-])c3ccc(=[N+](C)C)cc-3oc2c1 (stereo partly shown) [$$ 12, [y1,c4,K7(Tam),C9]-chemerin-9] (H-[dY][dF]P[dC][dQ][ξF][dK](X1)[dF][ξC]-OH; disulfide 4-9)
[3]; human blood plasma
  half-life: > 24 h
[3]
  stability in blood plasma: equally stable

## C[C@@H]1NC(=O)[C@H](Cc2ccccc2)NC(=O)[C@H](CCC(N)=O)NC(=O)[C@H](NC(=O)[C@@H]2CCCN2C(=O)[C@H](Cc2ccccc2)NC(=O)[C@@H](N)Cc2ccc(O)cc2)CSCSC[C@@H](C(=O)O)NC(=O)[C@H](Cc2ccccc2)NC1=O [$$ 7, [c4,C9-TA]-chemerin-9] (H-YFP[dC]QFAFC-OH; linker 4-9 via CH2)
CMKLR1 [2]; [5]
  pEC50 ± SEM: 7.888 ± 0.130

## NC(=O)CC[C@@H]1NC(=O)[C@H](NC(=O)[C@@H]2CCCN2C(=O)[C@H](Cc2ccccc2)NC(=O)[C@@H](N)Cc2ccc(O)cc2)CSSC[C@@H](C(=O)N[C@@H](Cc2ccccc2)C(=O)N[C@@H](CO)C(=O)O)NC(=O)[C@H](Cc2ccccc2)NC1=O [$$ 6, [c4,C7]-chemerin-9, reference compound] (H-YFP[dC]QFCFS-OH; disulfide 4-7)
CMKLR1 [2]
  EC50: 62.5 nM

## C[C@@H]1NC(=O)[C@H](Cc2ccccc2)NC(=O)[C@H](CCC(N)=O)NC(=O)[C@H](NC(=O)[C@@H]2CCCN2C(=O)[C@H](Cc2ccccc2)NC(=O)[C@H](Cc2ccc(O)cc2)NC(=O)CCOCCOCCOCCOCCNC(=O)c2ccc(C(=O)[O-])c(-c3c4ccc(=[N+](C)C)cc-4oc4cc(N(C)C)ccc34)c2)CCSSC[C@@H](C(=O)O)NC(=O)[C@H](Cc2ccccc2)NC1=O [$$ 17, Tam-EG4-[x4,C9]-chemerin-9] ({X1-PEG4}-YFP[d(hCys)]QFAFC-OH; disulfide 4-9)
[3]; human blood plasma
  half-life: > 48 h

From patent US20230303647A1, “CYCLIC CHEMERIN-9 DERIVATIVES” (priority 2020, published 2023)
